Legend:
[1] = target: T1, D-R region of NKA (Rattus norvegicus, UniProt P06685); experiment: Immunofluorescent staining of rat cardiac myocytes; assay type: binding; conditions: ouabain 5, 10 and 20 mM
T1 construct: endogenous in cells; host or cells: isolated rat cardiac myocytes, frozen sections
Protocol: With both ouabain and SSA412: FIG. 5E: a group of cells with 5 mM ouabain at a magnification of 400×, FIG. 5F: a single cell with 5 mM ouabain at 1200×, FIG. 5G: cells with 10 mM ouabain, FIG. 5H: cells with 20 mM ouabain.
Isolated rat heart cells were incubated in 1 ml cold lysis buffer containing 150 mM NaCl, 10 mM EDTA, 1% NP-40, 1 mM Na3VO4, and 1× protease inhibitor cocktail as described, with or without antibody. Immunoprecipitates were boiled for 5 min and loaded on a 7% SDS gel, and transferred from the SDS gel to a nitrocellulose membrane. The nitrocellulose membrane was blocked with 5% nonfat milk for 1 hour and incubated with SSA412 or other control antibodies overnight at 4° C. Alkaline phosphatase conjugated secondary antibody (1:2500) was then incubated with the membrane for 1 hour and washed 3 times with TBS in 0.05% Tween-20. Color was developed using a reagent containing a mixture of NBT and BCIP (Promega Corporation, WI). For immunofluorescent staining, rat myocytes were frozen and cut on a cryostat. Sections (8 μm) of each tissue were blocked with 1% bovine serum albumin (BSA) and incubated with SSA412 (1:100) for 60 min in the presence or absence of 5, 10, and 20 mM ouabain. Washed slides were evaluated after incubation with a FITC conjugated goat anti-rabbit antibody (1:75).

[2] = test system: α- and β-adrenergic receptors in isolated rat myocytes; experiment: Effect of α- and β-adrenergic receptor inhibitors on cell contraction; assay type: cell-based; conditions: 1 μM isoproterenol, inhibitors 7 μM each
Protocol: Cell contractions were measured in the presence or absence of SSA412 (0.5 μM) with or without inhibitors. Black circles: with 1 μM isoproterenol. Open circles: with 1 μM isoproterenol+ both prazosin and propennol (7 μM each). Black triangles: with SSA412 in the presence of both prazosin and propennol (7 μM each). Data are presented as percent of control (n=8 cells for each group).
Myocytes were placed on an inverted microscope (Zeiss model IM-35), superfused with HEPES-buffered solution at a flow rate of 1.8 ml/min, and electrically stimulated at 0.5 Hz at 23° C. Cell length was monitored from the bright-field image (650 nm to 750 nm red light illumination) by an optical edge-tracking method using a photodiode array (model 1024 SAQ, Reticon) with a 3-ms time resolution. Contraction amplitude was measured as the percentage of shortening of cell length.

[3] = test system: isolated rat cardiac myocytes; experiment: Intracellular Ca2+ transients and cell contraction; assay type: cell-based; conditions: SSA412 + 0.5 mM peptide blocker
Protocol: Ventricular cardiac myocytes were isolated from adult Sprague-Dawley rats (2-3 months old, weight 225-300 g) using standard enzymatic technique as described previously.^1 Briefly, following anaesthesia (sodium pentobarbital, 100 mg/kg), the heart was quickly removed from the chest and aortic perfused at constant pressure at 37° C. for 3 min with a Ca^2+-free bicarbonate-based buffer containing 120 mM NaCL, 5.4 mM MgSO4, 1.2 mM NaH2PO4, 5.6 mM glucose, 20 mM NaHCO3, and 5 mM taurine, in the presence of O2 (95%)/CO2 (5%). Enzymatic digestion was initiated by adding collagenase (Worthington Type II, 1 mg/ml) to the perfusion solution. Calcium (50 μM) was added to the enzyme solution when the heart became swollen. About 7 min later, the left ventricle was quickly removed, cut into several pieces, and further digested on a shaker (60-70 rpm) for 10 min in the same enzyme solution. […]
Myocytes were placed on an inverted microscope (Zeiss model IM-35), superfused with HEPES-buffered solution at a flow rate of 1.8 ml/min, and electrically stimulated at 0.5 Hz at 23° C. Cell length was monitored from the bright-field image (650 nm to 750 nm red light illumination) by an optical edge-tracking method using a photodiode array (model 1024 SAQ, Reticon) with a 3-ms time resolution. Contraction amplitude was measured as the percentage of shortening of cell length. […]

[4] = target: T2, purified ouabain-sensitive dog NKA (Canis lupus familiaris, UniProt P50997); experiment: NKA catalytic activity (ATPase assay, Kyte's method), purified dog NKA; assay type: biochemical; conditions: FIG. 7, antibody + peptide blocker
T2 construct: 30 μg of purified dog kidney NKA; from tissue; host or cells: dog kidney
Protocol: A first series of experiments were conducted testing whether antibody SSA412, binding to the D-R region of the alpha 1-subunit, affects NKA activity. NKA activity was determined based on Jack Kyte's method as previously described [17, which is hereby incorporated by reference as if set forth fully herein]. […] FIG. 2A and FIG. 2B show the time course of activation of purified rat (FIG. 2A: 0.125 mg/ml, ouabain-resistant) or dog (FIG. 2B: 0.125 mg/ml, ouabain-sensitive) NKA incubated with SSA412 (0.5 and 1.0 μM) or with 1.0 μM normal rabbit total IgG at 4° C. or at room temperature (FIG. 2C and FIG. 2D). The control is indicated by closed circles, […] SSA412 by open circles, […] SSA412 by closed triangles and […] rabbit IgG by open triangles.
NKA activity was determined based on Jack Kyte's method as previously described under various experimental conditions as indicated in FIG. 2. All NKA activities in different experiments are ouabain-sensitive activity. Purified ouabain-resistant rat NKA and ouabain-sensitive dog NKA were used to verify the data. Enzymes were incubated with or without SSA412 for 60 min at room temperature. The reaction was initiated by adding different concentrations of MgATP in a final volume of 0.25 ml at 37° C. for 30 min and terminated by adding 0.75 ml quench solution and 0.025 ml developer. Color was developed for 30 minutes at room temperature and the concentration of phosphate was then determined at 700 nm using a spectrophotometer. NKA turnover number (kcat) was calculated using the equation kcat=Vmax/Et, where Vmax is the maximal velocity (rate of reaction) and Et represents enzyme concentration.

## C[C@@H]1O[C@@H](O[C@H]2C[C@@H](O)[C@]3(CO)[C@H]4[C@H](O)C[C@]5(C)[C@@H](C6=CC(=O)OC6)CC[C@]5(O)[C@@H]4CC[C@]3(O)C2)[C@H](O)[C@H](O)[C@H]1O [Ouabain, ouabain]
[1]
  competition with SSA412 binding to the D-R region of NKA: does not compete

## COc1cc2nc(N3CCN(C(=O)c4ccco4)CC3)nc(N)c2cc1OC [prazosin]
[2]
  effect of inhibitor on action of the agonist isoproterenol: eliminated

## CC(C)NCC(O)COc1cccc2ccccc12 (stereo not shown) [propennol]
[2]
  effect of inhibitor on action of the agonist isoproterenol: eliminated

## DVEDSYGQQWTYEQR (Activation site of the (Na+K)-ATPase)
[3]
  SSA412-induced increase in calcium and contraction in presence of peptide blocker: blocked

## KRQPRNPKTDKLVNE (Activation site of the (Na+K)-ATPase) [PB95]
[4]
  antibody-induced increase in NKA in presence of respective peptide blocker: blocked

## RSATEEEPPNDD (Activation site of the (Na+K)-ATPase) [PB78]
[4]
  antibody-induced increase in NKA in presence of respective peptide blocker: blocked

## VPAISLAYEQAESD (VPASLAYEQAESD; Activation site of the (Na+K)-ATPase) [PB97]
[4]
  antibody-induced increase in NKA in presence of respective peptide blocker: blocked

Source: patent US8435519B2, “Antibodies that bind alpha subunit of sodium potassium ATPase” (priority 2005, dated 2013)
